{"source": "PubChem BioAssay AID1259408", "about": "(Genetic Toxicology Data Bank (GENE-TOX), 2018)", "test_system": "GENE-TOX genotoxicity assays, various organisms and cells", "assay": "GENE-TOX mutagenicity studies", "key": {"[1]": {"conditions": "Species/Cell Type: Salmonella typhimurium (one or more of the five standard strains: TA98, TA100, TA1535, TA1537, and TA1538), Assay Type: Histidine reverse gene mutation, Ames assay, Assay Code: SALT, Evaluation Type: Evaluation A (Pre-1980)"}, "[2]": {"conditions": "Species/Cell Type: Saccharomyces cerevisiae, Assay Type: Reverse gene mutation, Assay Code: YERT, Evaluation Type: Evaluation A (Pre-1980)"}, "[3]": {"conditions": "Species/Cell Type: Salmonella typhimurium (one or more of the five standard strains: TA98, TA100, TA1535, TA1537, and TA1538), Assay Type: Histidine reverse gene mutation, Ames assay, Assay Code: SAL+*, Activation: With metabolic activation, Evaluation Type: Evaluation A (Pre-1980)"}, "[4]": {"conditions": "Species/Cell Type: Drosophila melanogaster, Assay Type: Sex-linked recessive lethal gene mutation, Assay Code: SRLT, Evaluation Type: Evaluation A (Pre-1980)"}, "[5]": {"conditions": "Species/Cell Type: Escherichia coli polA (W3119 vs P3478), Assay Type: Rec-assay, DNA effects (bacterial DNA repair), Assay Code: RE1+, Evaluation Type: Evaluation A (Pre-1980)"}}, "note": "Calls of active or inactive are those of the source. How the calls were made is not given here."}
{"smiles": "O=S(=O)(O)c1ccccc1/C=C\\c1ccc(-c2ccc(/C=C\\c3ccccc3S(=O)(=O)O)cc2)cc1", "values": [{"measurement": "mutagenic call", "setting": "Species/Cell Type: Rodents, Sex: Male, Assay Type: Dominant lethal test, Assay Code: DLT-, Evaluation Type: Evaluation A (Pre-1980)", "result": "inactive; negative"}, {"measurement": "mutagenic call", "setting": "Species/Cell Type: Saccharomyces cerevisiae, Assay Type: Mitotic recombination or gene conversion, Assay Code: YECT, Evaluation Type: Evaluation A (Pre-1980)", "result": "no conclusion"}, {"measurement": "mutagenic call", "setting": "[1]", "result": "no conclusion"}]}
{"smiles": "CCCCN(N=O)C(=O)OCC", "values": [{"measurement": "call", "setting": "Species/Cell Type: Nonhuman, Assay Type: In vivo carcinogenicity studies, Assay Code: CCG+, Evaluation Type: Evaluation A (Pre-1980)", "result": "active; positive"}, {"measurement": "mutagenic call", "setting": "Species/Cell Type: Nonhuman, Assay Type: Sister-chromatid exchange (SCE) in vitro, Assay Code: SC2+, Evaluation Type: Evaluation A (Pre-1980)", "result": "active; positive"}]}
{"smiles": "Cc1cc2c3c(ccc2c2ccccc12)C(=O)CC3", "values": [{"measurement": "mutagenic call", "setting": "[1]", "result": "no conclusion"}]}
{"smiles": "Cc1ccccc1C", "values": [{"measurement": "mutagenic call", "setting": "Species/Cell Type: Mammalian polychromatic erythrocytes, Assay Type: Micronucleus test, chromosome aberrations, Assay Code: MNTT, Evaluation Type: Evaluation B (Post-1980)", "result": "no conclusion"}]}
{"smiles": "NC1C(O)[C@@H](O)C(CO)O[C@@H]1O", "note": "(stereo not given in full)", "values": [{"measurement": "mutagenic call", "setting": "Species/Cell Type: Escherichia coli WP2, Assay Type: Tryptophan reverse gene mutation, Assay Code: WP2-, Evaluation Type: Evaluation A (Pre-1980)", "result": "inactive; negative"}]}
{"smiles": "CCOc1ccc(CC(=O)OC)cc1CSC(=N)N", "values": [{"measurement": "mutagenic call", "setting": "[2]", "result": "no conclusion"}]}
{"smiles": "Cc1cc2c(C(C)C)c(O)c(O)c(C=O)c2c(O)c1-c1c(C)cc2c(C(C)C)c(O)c(O)c(C=O)c2c1O", "values": [{"measurement": "mutagenic call", "setting": "Species/Cell Type: Human lymphocytes, Assay Type: Sister-chromatid exchange (SCE) in vitro, Assay Code: SCL+, Evaluation Type: Evaluation B (Post-1980)", "result": "active; positive"}, {"measurement": "mutagenic call", "setting": "Species/Cell Type: Human, Assay Type: Sister-chromatid exchange (SCE) in vitro, Assay Code: SC1+, Evaluation Type: Evaluation B (Post-1980)", "result": "active; positive"}, {"measurement": "mutagenic call", "setting": "Species/Cell Type: Human, Sex: Male, Assay Type: Sperm morphology, Assay Code: SPH+, Evaluation Type: Evaluation A (Pre-1980)", "result": "active; positive"}, {"measurement": "mutagenic call", "setting": "Species/Cell Type: Mouse, Sex: Male, Assay Type: Sperm morphology, Assay Code: SPI+, Evaluation Type: Evaluation A (Pre-1980)", "result": "active; positive"}, {"measurement": "mutagenic call", "setting": "Species/Cell Type: Rabbit, Sex: Male, Assay Type: Sperm morphology, Assay Code: SPRT, Evaluation Type: Evaluation A (Pre-1980)", "result": "no conclusion"}, {"measurement": "mutagenic call", "setting": "Species/Cell Type: Rat, Sex: Male, Assay Type: Sperm morphology, Assay Code: SPA+, Evaluation Type: Evaluation A (Pre-1980)", "result": "active; positive"}]}
{"smiles": "OC(CCl)CCl", "values": [{"measurement": "mutagenic call", "setting": "[3]", "result": "active; positive"}]}
{"smiles": "C1=CC2OC2c2cc3ccc4ccccc4c3cc21", "note": "(stereo not given)", "values": [{"measurement": "mutagenic call", "setting": "[4]", "result": "no conclusion"}, {"measurement": "mutagenic call", "setting": "Species/Cell Type: Mouse prostate cells, Assay Type: Cell transformation, Assay Code: CTM+, Evaluation Type: Evaluation A (Pre-1980)", "result": "active; positive"}]}
{"smiles": "O=C(O)C(F)(F)F", "values": [{"measurement": "mutagenic call", "setting": "[1]", "result": "no conclusion"}]}
{"smiles": "CC1=CCCc2c1cc(C)c1c2ccc2ccccc21", "values": [{"measurement": "mutagenic call", "setting": "[3]", "result": "active; positive"}]}
{"smiles": "CCN(O)CC", "values": [{"measurement": "mutagenic call", "setting": "Species/Cell Type: Drosophila melanogaster, Assay Type: Sex-linked recessive lethal gene mutation, Assay Code: SRL+, Evaluation Type: Evaluation A (Pre-1980)", "result": "active; positive"}, {"measurement": "mutagenic call", "setting": "Species/Cell Type: Human diploid fibroblasts, Assay Type: Unscheduled DNA synthesis (UDS) in vitro, DNA effects, Assay Code: UDH+, Evaluation Type: Evaluation A (Pre-1980)", "result": "active; positive"}, {"measurement": "mutagenic call", "setting": "Species/Cell Type: Mammalian polychromatic erythrocytes, Assay Type: Micronucleus test, chromosome aberrations, Assay Code: MNTT, Evaluation Type: Evaluation A (Pre-1980)", "result": "no conclusion"}, {"measurement": "mutagenic call", "setting": "Species/Cell Type: Rodents, Sex: Male, Assay Type: Dominant lethal test, Assay Code: DLTT, Evaluation Type: Evaluation A (Pre-1980)", "result": "no conclusion"}]}
{"smiles": "CCCCOc1ccc(CC(=O)NN)cc1CN(CC)CC", "values": [{"measurement": "mutagenic call", "setting": "[2]", "result": "no conclusion"}]}
{"smiles": "O=Nc1ccc2c(c1)Cc1ccccc1-2", "values": [{"measurement": "mutagenic call", "setting": "[5]", "result": "active; positive"}, {"measurement": "mutagenic call", "setting": "Species/Cell Type: Salmonella typhimurium (one or more of the five standard strains: TA98, TA100, TA1535, TA1537, and TA1538), Assay Type: Histidine reverse gene mutation, Ames assay, Assay Code: SAL+, Evaluation Type: Evaluation A (Pre-1980)", "result": "active; positive"}]}
{"smiles": "O=NN1CCCCC1C(=O)O", "note": "(stereo not given)", "values": [{"measurement": "mutagenic call", "setting": "[4]", "result": "no conclusion"}]}
{"smiles": "Cn1cccc1CO", "values": [{"measurement": "mutagenic call", "setting": "Species/Cell Type: Human lymphocytes, Assay Type: Sister-chromatid exchange (SCE) in vitro, Assay Code: SCL+D, Dose Response: With dose response, Evaluation Type: Evaluation B (Post-1980)", "result": "active; positive"}, {"measurement": "mutagenic call", "setting": "Species/Cell Type: Human, Assay Type: Sister-chromatid exchange (SCE) in vitro, Assay Code: SC1+D, Dose Response: With dose response, Evaluation Type: Evaluation B (Post-1980)", "result": "active; positive"}]}
{"smiles": "C[C@H](CCC(=O)O)[C@H]1CC[C@H]2[C@@H]3CC[C@@H]4C[C@H](OS(=O)(=O)O)CC[C@]4(C)[C@H]3CC[C@]12C", "values": [{"measurement": "mutagenic call", "setting": "Species/Cell Type: Syrian hamster embryo (SHE) cells, Assay Type: Cell transformation, clonal assay, Assay Code: CTC-, Evaluation Type: Evaluation A (Pre-1980)", "result": "inactive; negative"}]}
{"smiles": "CCCCN(CCC)N=O", "values": [{"measurement": "mutagenic call", "setting": "[3]", "result": "active; positive"}]}
{"smiles": "NC[C@H]1O[C@H](O[C@H]2[C@H](O[C@@H]3O[C@H](CO)[C@@H](O)[C@H]3O)[C@@H](O)[C@H](N)C[C@@H]2N)[C@H](N)[C@@H](O)[C@@H]1O", "values": [{"measurement": "mutagenic call", "setting": "Species/Cell Type: Saccharomyces cerevisiae, Assay Type: Mitotic recombination or gene conversion, Assay Code: YEH-, Evaluation Type: Evaluation A (Pre-1980)", "result": "inactive; negative"}]}
{"smiles": "CC(C)C(N)C(=O)O", "note": "(stereo not given)", "values": [{"measurement": "mutagenic call", "setting": "Species/Cell Type: Escherichia coli polA (W3119 vs P3478), Assay Type: Rec-assay, DNA effects (bacterial DNA repair), Assay Code: RE1T, Evaluation Type: Evaluation A (Pre-1980)", "result": "no conclusion"}]}
{"smiles": "CCC(C)I", "note": "(stereo not given)", "values": [{"measurement": "mutagenic call", "setting": "[5]", "result": "active; positive"}]}
